Where only a bound is given, the exact number is not on record here.

As usually defined, the IC50 is the midpoint of a concentration-inhibition curve.

This experiment has as its target T1, human KCNK13 (Homo sapiens, UniProt Q9HB14).
T1 construct: expressed in transfected cells
T1 sequence (Q9HB14 1-408): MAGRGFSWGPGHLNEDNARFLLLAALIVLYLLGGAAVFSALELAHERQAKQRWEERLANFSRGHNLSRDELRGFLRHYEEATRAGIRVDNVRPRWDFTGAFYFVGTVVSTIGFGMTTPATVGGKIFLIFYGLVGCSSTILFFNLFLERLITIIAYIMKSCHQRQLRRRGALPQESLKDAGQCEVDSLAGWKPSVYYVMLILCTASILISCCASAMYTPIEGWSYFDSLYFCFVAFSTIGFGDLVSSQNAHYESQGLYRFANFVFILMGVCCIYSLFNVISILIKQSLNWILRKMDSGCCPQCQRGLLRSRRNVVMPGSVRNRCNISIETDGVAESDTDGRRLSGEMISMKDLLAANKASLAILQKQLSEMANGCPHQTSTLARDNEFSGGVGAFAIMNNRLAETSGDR
The experiment in a line: KCNK13 antagonist activity, thallium flux FLIPR assay in HEK 293 cells stably expressing human KCNK13. Particulars: HEK 293 cells stably expressing human KCNK13, Tl+ sensitive dye, compound 15 min before thallium sulfate, ten point curves; read-out: hKCNK13 IC50. The format is cell-based. As for the experimental part: 4. Biological Efficacy of Compounds of the Invention
KCNK13 antagonist activity was determined by measuring changes in intracellular Thallium (Tl^+) concentrations using a Tl^+ sensitive fluorescent dye. The changes in fluorescent signal were monitored by Fluorescent Imaging Plate Reader (FLIPR™) technology available from Molecular Devices, LLC, US. KCNK13 mediated increases in intracellular Tl^+ concentration were readily detected by addition of a thallium sulfate Stimulus. 24 hours prior to the assay, human embryonic kidney 293 cells (HEK 293 cells) stably expressing human KCNK13 were seeded in cell culture medium in PDL coated black, clear-bottom 384-well plates (commercially available from Corning Inc., 356663) and grown overnight at 37° C., […]. On the day of the assay, cell culture media was removed and cells were loaded with potassium dye (commercially sold by Molecular Devices, LLC, US, R8222) for 1 hour at room temperature in the dark. Test compounds (at 10 point half log concentration response curves from 100 µM) were added to cells for 15 minutes prior to the addition of thallium sulfate to all wells. The IC50 values were determined from ten point concentration response curves. Curves were generated using the average of two wells for each data point.
As to `COc1ncc(F)cc1C(=O)N(C)Cc1c(F)cc(F)cc1C#N` [Example 61, N-(2-cyano-4,6-difluorobenzyl)-5-fluoro-2-methoxy-N-methylnicotinamide], the IC50 was at most 1000 nM.

Turning to `COc1ncc(C)cc1C(=O)N(C)Cc1ccc(F)cc1F` [Example 72, N-(2,4-difluorobenzyl)-2-methoxy-N,5-dimethylnicotinamide], the IC50 is at most 200 nM.

As for `COc1nccc(C)c1C(=O)N(C)Cc1ccc(F)cc1F` [Example 73, N-(2,4-difluorobenzyl)-2-methoxy-N,4-dimethylnicotinamide], the IC50 was at most 500 nM.

`CN(C(=O)c1cc(F)cnc1OC(F)F)C1COc2cc(F)ccc21` (stereo not shown) [Example 74, 2-(difluoromethoxy)-5-fluoro-N-(6-fluoro-2,3-dihydrobenzofuran-3-yl)-N-methylnicotinamide]: the IC50 was at most 500 nM.

`CN(C(=O)c1cc(F)cnc1OC(F)F)C1COc2c(F)cccc21` (stereo not shown) [Example 75, 2-(difluoromethoxy)-5-fluoro-N-(7-fluoro-2,3-dihydrobenzofuran-3-yl)-N-methylnicotinamide]: the IC50 was at most 500 nM.

In the case of `Cc1cc(F)cc(CN(C)C(=O)c2cc(Cl)cnc2OC(F)F)c1` [Example 76, 5-chloro-2-(difluoromethoxy)-N-(3-fluoro-5-methylbenzyl)-N-methylnicotinamide], the IC50 is at most 200 nM.

Consider `CN(C(=O)c1cc(Cl)cnc1OC(F)F)C1COc2cc(F)ccc21` (stereo not shown) [Example 77, 5-chloro-2-(difluoromethoxy)-N-(6-fluoro-2,3-dihydrobenzofuran-3-yl)-N-methylnicotinamide], for which the IC50 was at most 500 nM.

As to `CN(Cc1cc(F)cc(F)c1)C(=O)c1cc(Cl)cnc1OC(F)F` [Example 78, 5-chloro-N-(3,5-difluorobenzyl)-2-(difluoromethoxy)-N-methylnicotinamide], the IC50 is at most 50 nM.

`CN(Cc1cc(F)cc(Cl)c1)C(=O)c1cc(Cl)cnc1OC(F)F` [Example 79, 5-chloro-N-(3-chloro-5-fluorobenzyl)-2-(difluoromethoxy)-N-methylnicotinamide]: the half-maximal inhibitory concentration (IC50) is at most 200 nM.

On to `Cc1cccc(CN(C)C(=O)c2cc(Cl)cnc2OC(F)F)c1` [Example 80, 5-chloro-2-(difluoromethoxy)-N-methyl-N-(3-methylbenzyl)nicotinamide], for which the IC50 is at most 100 nM.

As for `COc1cccc(CN(C)C(=O)c2cc(Cl)cnc2OC(F)F)c1` [Example 81, 5-chloro-2-(difluoromethoxy)-N-(3-methoxybenzyl)-N-methylnicotinamide], the IC50 was at most 200 nM.

`CN(Cc1cccc(C(F)(F)F)c1)C(=O)c1cc(Cl)cnc1OC(F)F` [Example 82, 5-chloro-2-(difluoromethoxy)-N-methyl-N-(3-(trifluoromethyl)benzyl)nicotinamide]: the IC50 was at most 500 nM.

As to `CC(c1cccc(F)c1)N(C)C(=O)c1cc(F)cnc1OC(F)F` (stereo not shown) [Example 83, 2-(difluoromethoxy)-5-fluoro-N-(1-(3-fluorophenyl)ethyl)-N-methylnicotinamide], the IC50 was at most 100 nM.

As to `CN(Cc1cccc(Cl)c1)C(=O)c1cc(Cl)cnc1OC(F)F` [Example 84, 5-chloro-N-(3-chlorobenzyl)-2-(difluoromethoxy)-N-methylnicotinamide], the IC50 was at most 100 nM.

For `CN(C(=O)c1cc(F)cnc1OC(F)F)C1COc2ccccc21` (stereo not shown) [Example 85, 2-(difluoromethoxy)-N-(2,3-dihydrobenzofuran-3-yl)-5-fluoro-N-methylnicotinamide], the IC50 was at most 200 nM.

`CN(Cc1cccc(C#N)c1)C(=O)c1cc(Cl)cnc1OC(F)F` [Example 90, 5-chloro-N-(3-cyanobenzyl)-2-(difluoromethoxy)-N-methylnicotinamide]: the IC50 is at most 500 nM.

On to `CN(C(=O)c1cc(Cl)cnc1OC(F)F)C1COc2ccccc21` (stereo not shown) [Example 91, 5-chloro-2-(difluoromethoxy)-N-(2,3-dihydrobenzofuran-3-yl)-N-methylnicotinamide], for which the IC50 was at most 500 nM.

Regarding `CN(C(=O)c1cc(Cl)cnc1OC(F)F)C1COc2c(F)cccc21` (stereo not shown) [Example 92, 5-chloro-2-(difluoromethoxy)-N-(7-fluoro-2,3-dihydrobenzofuran-3-yl)-N-methylnicotinamide], the IC50 was at most 500 nM.

With `CN(Cc1cccc(F)c1F)C(=O)c1cc(F)cnc1OC(F)F` [Example 93, N-(2,3-difluorobenzyl)-2-(difluoromethoxy)-5-fluoro-N-methylnicotinamide], the IC50 was at most 100 nM.

As for `CN(Cc1ccc(F)cc1F)C(=O)c1cc(F)cnc1OC(F)F` [Example 94, N-(2,4-difluorobenzyl)-2-(difluoromethoxy)-5-fluoro-N-methylnicotinamide], the IC50 was at most 100 nM.

Consider `CN(Cc1cccc(F)c1)C(=O)c1cc(F)cnc1OC(F)F` [Example 95, 2-(difluoromethoxy)-5-fluoro-N-(3-fluorobenzyl)-N-methylnicotinamide], for which the IC50 was at most 100 nM.

On to `CN(Cc1cccc(F)c1)C(=O)c1cc(C(F)(F)F)cnc1OC(F)F` [Example 96, 2-(difluoromethoxy)-N-(3-fluorobenzyl)-N-methyl-5-(trifluoromethyl)nicotinamide], for which the IC50 is at most 500 nM.

Consider `CN(Cc1cccc(F)c1)C(=O)c1cc(C2CCC2)cnc1OC(F)F` [Example 97, 5-cyclobutyl-2-(difluoromethoxy)-N-(3-fluorobenzyl)-N-methylnicotinamide], for which the IC50 was at most 1000 nM.

Turning to `CN(Cc1cccc(OC(F)F)c1)C(=O)c1cc(Cl)cnc1OC(F)F` [Example 98, 5-chloro-2-(difluoromethoxy)-N-(3-(difluoromethoxy)benzyl)-N-methylnicotinamide], the IC50 was at most 200 nM.

Take `CN(Cc1cccc(OC(F)(F)F)c1)C(=O)c1cc(Cl)cnc1OC(F)F` [Example 99, 5-chloro-2-(difluoromethoxy)-N-methyl-N-(3-(trifluoromethoxy)benzyl)nicotinamide]: the IC50 was at most 1000 nM.

On to `CN(Cc1ccc(F)cc1F)C(=O)c1cc(Cl)cnc1OC(F)F` [Example 100, 5-chloro-N-(2,4-difluorobenzyl)-2-(difluoromethoxy)-N-methylnicotinamide], for which the IC50 was at most 100 nM.

`CN(Cc1cccc(F)c1)C(=O)c1cc(Cl)cnc1OC(F)F` [Example 101, 5-chloro-2-(difluoromethoxy)-N-(3-fluorobenzyl)-N-methylnicotinamide]: the IC50 is at most 100 nM.

In the case of `CN(Cc1cccc(F)c1F)C(=O)c1cc(Cl)cnc1OC(F)F` [Example 102, 5-chloro-N-(2,3-difluorobenzyl)-2-(difluoromethoxy)-N-methylnicotinamide], the IC50 is at most 100 nM.

As to `CN(Cc1cc(F)cc(F)c1)S(=O)(=O)c1cc(F)cnc1OC(F)F` [Example 103, N-(3,5-difluorobenzyl)-2-(difluoromethoxy)-5-fluoro-N-methylpyridine-3-sulfonamide], the IC50 was at most 200 nM.

In the case of `C[C@H](c1cccc(F)c1)N(C)S(=O)(=O)c1cc(F)cnc1OC(F)F` [Example 104, (R)-2-(difluoromethoxy)-5-fluoro-N-(i-(3-fluorophenyl)ethyl)-N-methylpyridine-3-sulfonamide], the IC50 was at most 1000 nM.

With `C[C@@H](c1cccc(F)c1)N(C)S(=O)(=O)c1cc(F)cnc1OC(F)F` [Example 105, (S)-2-(difluoromethoxy)-5-fluoro-N-(1-(3-fluorophenyl)ethyl)-N-methylpyridine-3-sulfonamide], the IC50 is at most 1000 nM.

The record behind these values is patent US20260167632A1, “NICOTINAMIDE DERIVATIVES FOR USE IN TREATING DISORDERS ASSOCIATED WITH KCNK13 ACTIVITY” (Cerevance, Inc., priority 2022, published 2026).
